Data as given in US10865216B2, “Tricyclic Gyrase inhibitors” (MERCK SHARP & DOHME CORP., priority 2012, dated 2020).
Values after ≈ are worked out from the molar mass of the structure shown.

Assays:
[1] = system: S. aureus ATCC 13709; experiment: MIC, S. aureus ATCC 13709; format: cell-based; conditions: Table 18, Sa
[2] = system: E. coli ATCC 25922; experiment: MIC, E. coli ATCC 25922; format: cell-based; conditions: Table 18, Ec

SMILES	MIC Sa [1] [µg/mL]	MIC Ec [2] [µg/mL]
CNc1cc(F)cc2c1[nH]c1nc(Oc3cnc4ccnn4c3)nc(N3C[C@@H]4[C@H](N)C[C@]4(C)C3)c12 [Compound 10.18]	≤ 0.5	≤ 0.5
CNc1cc(F)cc2c1[nH]c1nc(Oc3cnc4c(C)cnn4c3)nc(N3C[C@H]4C[C@@H]3C[C@H]4N)c12 [Compound 10.19]	≤ 0.5	≤ 0.5
CNc1cc(F)cc2c1[nH]c1nc(Oc3cnc4c(C)cnn4c3)nc(N3C[C@H](N)C4(CC4)C3)c12 [Compound 10.20]	≤ 0.5	≤ 0.5
CNc1cc(F)c(F)c2c1[nH]c1nc(Oc3cnc4ccnn4c3)nc(N3C[C@H]4C[C@@H]3C[C@H]4N)c12 [Compound 10.21]	≤ 0.5	≤ 0.5
CNc1cc(F)cc2c1[nH]c1nc(Oc3ccn4ccnc4c3)nc(N3C[C@H]4C[C@@H]3C[C@H]4N)c12 [Compound 10.22]	≤ 0.5	≤ 0.5
CNc1cc(F)cc2c1[nH]c1nc(Oc3cnc4c(Cl)cnn4c3)nc(N3C[C@H]4C[C@@H]3C[C@H]4N)c12 [Compound 10.23]	≤ 0.5	≤ 0.5
CNc1cc(F)cc2c1[nH]c1nc(Oc3cnc4c(C)cnn4c3)nc(N3C[C@H]4CCN[C@H]4C3)c12 [Compound 10.24]	≤ 0.5	≤ 0.5
CNc1cc(F)c(F)c2c1[nH]c1nc(Oc3cnc([C@H](C)O)nc3)nc(N3C[C@H]4C[C@@H]3C[C@H]4N)c12 [Compound 10.25]	≤ 0.5	≤ 0.5
CNc1cc(F)c(F)c2c1[nH]c1nc(Oc3cnc4c(C)cnn4c3)nc(N3C[C@H]4C[C@@H]3C[C@H]4N)c12 [Compound 10.26]	≤ 0.5	≤ 0.5
CNc1cc(F)cc2c1[nH]c1nc(Oc3cnc(/C(C)=N/OC)nc3)nc(N3C[C@H]4C[C@@H]3C[C@H]4N)c12 [Compound 10.27]	≤ 0.5	≤ 0.5
CNc1cc(F)c(F)c2c1[nH]c1nc(Oc3cnc4ccnn4c3)nc(N3C[C@H]4C[C@@H](N)[C@H]4C3)c12 [Compound 10.28]	≤ 0.5	≤ 0.5
CNc1cc(F)cc2c1[nH]c1nc(Oc3cnc(C(C)O)c(F)c3)nc(N3C[C@H]4C[C@@H]3C[C@H]4N)c12 (stereo partly shown) [Compound 10.29]	≤ 0.5	≤ 0.5
CNc1cc(F)cc2c1[nH]c1nc(Oc3cnc4c(C)cnn4c3)nc(N3CC4C[C@@H](N)C4C3)c12 (stereo partly shown) [Compound 10.30]	≤ 0.5	≤ 0.5

Further lines, results first:

MIC Sa [1] [µg/mL]	MIC Ec [2] [µg/mL]	SMILES
≤ 0.5	≤ 0.5	CNc1cc(F)c(F)c2c1[nH]c1nc(Oc3cnc([C@@H](C)O)nc3)nc(N3CC4NCC[C@@H]4C3)c12 (stereo partly shown) [Compound 10.31]
≤ 0.5	≤ 0.5	CNc1cc(F)c(F)c2c1[nH]c1nc(Oc3cnc(C)nc3)nc(N3CC4NCC[C@@H]4C3)c12 (stereo partly shown) [Compound 10.32]
≤ 0.5	≤ 0.5	CNc1cc(Cl)cc2c1[nH]c1nc(Oc3cnc(C(C)O)nc3)nc(N3C[C@H]4C[C@@H]3C[C@H]4N)c12 (stereo partly shown) [Compound 10.33]
≤ 0.5	≤ 0.5	CNc1cc(F)cc2c1[nH]c1nc(Oc3cnc4scnc4c3)nc(N3C[C@H]4C[C@@H]3C[C@H]4N)c12 [Compound 10.34]
≤ 0.5	≤ 0.5	CNc1cc(F)cc2c1[nH]c1nc(Oc3cnc4c(F)cnn4c3)nc(N3C[C@H]4C[C@@H]3C[C@H]4N)c12 [Compound 10.35]
≤ 0.5	≤ 0.5	CNc1cc(F)cc2c1[nH]c1nc(Oc3cnc4cc(C5CC5)nn4c3)nc(N3C[C@H]4C[C@@H]3C[C@H]4N)c12 [Compound 10.36]
≤ 0.5	≤ 0.5	CNc1cc(Cl)cc2c1[nH]c1nc(Oc3cnc4ccnn4c3)nc(N3C[C@H]4C[C@@H]3C[C@H]4N)c12 [Compound 10.37]
≤ 0.5	≤ 0.5	CNc1cc(F)cc2c1[nH]c1nc(Sc3nc4cccnc4[nH]3)nc(N3C[C@H]4C[C@@H]3C[C@H]4N)c12 [Compound 10.38]
≤ 0.5	≤ 0.5	CNc1cc(F)cc2c1[nH]c1nc(Oc3cnc4c(C)cnn4c3)nc(N3CC4C(N)C4C3)c12 (stereo not shown) [Compound 10.40]
≤ 0.5	≤ 0.5	CNc1cc(F)cc2c1[nH]c1nc(Nc3cnc(C)nc3)nc(N3C[C@H]4C[C@@H]3C[C@H]4N)c12 [Compound 10.41]
≤ 0.5	1 (≈ 2.01 µM)	CCOC(=O)c1csc(Nc2nc(N3C[C@H]4C[C@@H]3C[C@H]4N)c3c(n2)[nH]c2c(NC)cc(F)cc23)n1 [Compound 10.42]
≤ 0.5	1 (≈ 1.99 µM)	CNc1cc(F)cc2c1[nH]c1nc(Nc3cnc4c(c3)nnn4C(C)C)nc(N3C[C@H]4C[C@@H]3C[C@H]4N)c12 [Compound 10.43]
≤ 0.5	≤ 0.5	CNc1cc(F)cc2c1[nH]c1nc(Nc3cccnc3)nc(N3C[C@H]4C[C@@H]3C[C@H]4N)c12 [Compound 10.44]
≤ 0.5	≤ 0.5	CNc1cc(F)cc2c1[nH]c1nc(Nc3cnc4ccnn4c3)nc(N3C[C@H]4C[C@@H]3C[C@H]4N)c12 [Compound 10.45]
≤ 0.5	≤ 0.5	CNc1cc(F)cc2c1[nH]c1nc(Nc3cnn4ccnc4c3)nc(N3C[C@H]4C[C@@H]3C[C@H]4N)c12 [Compound 10.46]
1 (≈ 2.38 µM)	8 (≈ 19 µM)	CNc1cc(F)cc2c1[nH]c1nc(Cc3cnn(C)c3)nc(N3C[C@H]4C[C@@H]3C[C@H]4N)c12 [Compound 10.47]
